Results reported in ChEMBL document CHEMBL1124833, “Topically active carbonic anhydrase inhibitors. 3. Benzofuran- and indole-2-sulfonamides” (J Med Chem, 1990).
pIC50: −log10 of the molar value. Values after ≈ are worked out from the molar mass of the structure shown.

Key:
Cavia porcellus [1] = species on record: Cavia porcellus; assay: Number of animals showing dermal sensitization/ number of animals tested in Magnusson-Kligman assay; 15/40; assay type: functional
Carbonic anhydrase 2 = Carbonic anhydrase 2 (Homo sapiens, UniProt P00918)
Description: In vitro inhibition of human carbonic anhydrase II (0.1 nM).

Oryctolagus cuniculus [2] = assay: METD(minimum effective topical dose of the compound) for ocular hypotensive activity in alpha-CT-rabbits; assay type: functional, Eye
[3] = Solubility; assay type: physicochemical; conditions: read-out: S
Oryctolagus cuniculus [4] = assay: In vivo intraocular pressure reduction was determined in rabbits after effective topical dose (duration expressed as number of time points, P<=0.05); assay type: functional, Eye
[5] = Extent of reaction with 20 equiv of reduced glutathione (GSH) in 20 hours at pH 7.4 and 37 degree C
[6] = Extent of reaction with 5 equiv of reduced glutathione (GSH) between 16 and 22 hours at pH 7.4 and 37 degree C
Cavia porcellus [7] = species on record: Cavia porcellus; assay: Number of animals showing dermal sensitization/ number of animals tested in Magnusson-Kligman assay.; assay type: functional
Cavia porcellus [8] = species on record: Cavia porcellus; assay: Number of animals showing dermal sensitization/ number of animals tested in Magnusson-Kligman assay; 8/19; assay type: functional

NS(=O)(=O)c1cc2cc(O)ccc2o1
No. of animals (Cavia porcellus [1]): 15 | pIC50 (Carbonic anhydrase 2): 8.19 | METD (Oryctolagus cuniculus [2]): 0.1% | solubility [3]: 2100 µg/mL (≈ 9850 µM) | Max IOP reduction (Oryctolagus cuniculus [4]): -6 mmHg | GSH [5]: 9% | GSH [6]: 4%

COc1ccc2cc(S(N)(=O)=O)n(S(=O)(=O)c3ccccc3)c2c1
pIC50 (Carbonic anhydrase 2): < 5.00

COc1ccc2oc(S(N)(=O)=O)cc2c1
pIC50 (Carbonic anhydrase 2): 8.29 | solubility [3]: 540 µg/mL (≈ 2380 µM) | GSH [5]: 10%

COc1ccc2[nH]c(S(N)(=O)=O)cc2c1
pIC50 (Carbonic anhydrase 2): 7.80 | solubility [3]: 150 µg/mL (≈ 663 µM)

CC(=O)Oc1ccc2[nH]c(S(N)(=O)=O)cc2c1
pIC50 (Carbonic anhydrase 2): 7.96 | solubility [3]: 220 µg/mL (≈ 865 µM)

CC(C)(C)C(=O)Oc1ccc2cc(S(N)(=O)=O)oc2c1
METD (Oryctolagus cuniculus [2]): 0.5% | Max IOP reduction (Oryctolagus cuniculus [4]): -5.3 mmHg

CC(=O)Oc1ccc2cc(S(N)(=O)=O)sc2c1
METD (Oryctolagus cuniculus [2]): 0.1% | Max IOP reduction (Oryctolagus cuniculus [4]): -5.3 mmHg

NS(=O)(=O)c1cc2ccccc2[nH]1
pIC50 (Carbonic anhydrase 2): 7.35 | solubility [3]: 850 µg/mL (≈ 4330 µM) | GSH [6]: 0%

NS(=O)(=O)c1cc2ccccc2o1
pIC50 (Carbonic anhydrase 2): 8.10 | solubility [3]: 480 µg/mL (≈ 2430 µM) | GSH [5]: 10% | GSH [6]: 0%

CC(=O)Oc1ccc2cc(S(N)(=O)=O)[nH]c2c1
pIC50 (Carbonic anhydrase 2): 7.49

CC(C)(C)C(=O)Oc1ccc2oc(S(N)(=O)=O)cc2c1
pIC50 (Carbonic anhydrase 2): 8.52 | GSH [6]: 3.4%

COc1ccc2cc(S(N)(=O)=O)oc2c1
pIC50 (Carbonic anhydrase 2): 7.82

NS(=O)(=O)c1cc2cc(O)ccc2[nH]1
No. of animals (Cavia porcellus [7]): 19 | pIC50 (Carbonic anhydrase 2): 7.66 | METD (Oryctolagus cuniculus [2]): 0.1% | solubility [3]: 1900 µg/mL (≈ 8950 µM) | Max IOP reduction (Oryctolagus cuniculus [4]): -7.5 mmHg | GSH [5]: 13% | GSH [6]: 0.7%

Nc1ccc2cc(S(N)(=O)=O)oc2c1
pIC50 (Carbonic anhydrase 2): 7.60 | solubility [3]: 80 µg/mL (≈ 377 µM) | GSH [5]: 17% | GSH [6]: 11%

Cc1c(S(N)(=O)=O)oc2cc(O)ccc12
pIC50 (Carbonic anhydrase 2): 6.68 | GSH [5]: 47%

Nc1ccc2oc(S(N)(=O)=O)cc2c1
pIC50 (Carbonic anhydrase 2): 8.05 | METD (Oryctolagus cuniculus [2]): 0.5% | solubility [3]: 280 µg/mL (≈ 1320 µM) | Max IOP reduction (Oryctolagus cuniculus [4]): -6 mmHg | GSH [6]: 11%

CC(=O)Oc1ccc2oc(S(N)(=O)=O)cc2c1
pIC50 (Carbonic anhydrase 2): 8.19 | solubility [3]: 190 µg/mL (≈ 744 µM) | Max IOP reduction (Oryctolagus cuniculus [4]): -5.7 mmHg

COc1ccc2cc(S(N)(=O)=O)[nH]c2c1
pIC50 (Carbonic anhydrase 2): 7.22 | solubility [3]: 520 µg/mL (≈ 2300 µM)

NS(=O)(=O)c1cc2ccc(O)cc2[nH]1
pIC50 (Carbonic anhydrase 2): 7.52 | METD (Oryctolagus cuniculus [2]): 0.5% | solubility [3]: 4800 µg/mL (≈ 22600 µM) | Max IOP reduction (Oryctolagus cuniculus [4]): -5 mmHg | GSH [5]: 17% | GSH [6]: 2.5%

COc1ccc2cc(S(N)(=O)=O)n(C)c2c1
pIC50 (Carbonic anhydrase 2): 6.96 | solubility [3]: 40 µg/mL (≈ 166 µM) | GSH [5]: 37%

NS(=O)(=O)c1cc2ccc(O)cc2o1
pIC50 (Carbonic anhydrase 2): 7.96 | METD (Oryctolagus cuniculus [2]): 0.5% | solubility [3]: 2800 µg/mL (≈ 13100 µM) | Max IOP reduction (Oryctolagus cuniculus [4]): -5.2 mmHg | No. of animals (Cavia porcellus [8]): 8 | GSH [5]: 23% | GSH [6]: 4.9%

CC(=O)Oc1ccc2cc(S(N)(=O)=O)oc2c1
pIC50 (Carbonic anhydrase 2): 8.26 | METD (Oryctolagus cuniculus [2]): 0.5% | Max IOP reduction (Oryctolagus cuniculus [4]): -8.8 mmHg

NS(=O)(=O)c1cc2cc3c(cc2[nH]1)OCO3
pIC50 (Carbonic anhydrase 2): 7.60 | solubility [3]: 50 µg/mL (≈ 208 µM)

NS(=O)(=O)c1cc2ccc(O)cc2s1
No. of animals (Cavia porcellus [7]): 0 | METD (Oryctolagus cuniculus [2]): 0.05% | solubility [3]: 430 µg/mL (≈ 1880 µM) | Max IOP reduction (Oryctolagus cuniculus [4]): -5.5 mmHg | GSH [5]: 2.9% | GSH [6]: 0%
